Like-named read-outs stand apart in the source and are kept apart here.

The values below come from paper PMC12049818, “Identification of NUV-244 as a PNPLA3 I148M degrading small molecule” (iScience, 2025).

Assay [1] concerns the target T1, PNPLA3 I148M-tagRFP (Homo sapiens, UniProt Q9NST1, I148M).
T1 construct: host or cells: Huh7
T1 sequence (Q9NST1 1-481 I148M): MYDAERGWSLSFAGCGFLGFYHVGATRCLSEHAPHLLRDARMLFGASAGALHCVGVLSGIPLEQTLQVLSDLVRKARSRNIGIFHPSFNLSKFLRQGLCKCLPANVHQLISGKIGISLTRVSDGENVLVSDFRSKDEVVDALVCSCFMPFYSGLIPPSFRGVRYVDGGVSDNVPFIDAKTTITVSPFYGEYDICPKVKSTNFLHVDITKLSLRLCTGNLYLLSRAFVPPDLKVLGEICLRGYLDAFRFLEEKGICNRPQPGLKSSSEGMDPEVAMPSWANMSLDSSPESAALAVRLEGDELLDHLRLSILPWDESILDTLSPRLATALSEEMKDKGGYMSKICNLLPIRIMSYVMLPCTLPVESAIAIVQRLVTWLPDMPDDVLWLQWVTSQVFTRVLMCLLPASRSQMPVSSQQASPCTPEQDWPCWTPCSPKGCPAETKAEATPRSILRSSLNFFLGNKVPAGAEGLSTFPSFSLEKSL
Kind of assay: Huh7 PNPLA3 I148M-tagRFP reduction on lipid droplets (high-content imaging). The assay is classed as cell-based. The method, then:
For dose-response cells were seeded at 4000 c/30 μl per well in 384 well plates (Revvity, Waltham, MA, USA, PhenoPlate 384-well microplate, #6057308) and stored in a 37°C incubator with 5% CO2 and 95% humidity overnight. Compounds, serially diluted, and DMSO controls were added, and cells were incubated for another 24h. Cells were fixed and stained with a mixture of Paraformaldehyde (final 1%, Electron Microscopy Science), BODIPY (final 38 nM, Invitrogen) and Hoechst 33342 (final 2 μg/ml, Biotium) diluted in PBS for 30 min at room temperature in the dark (no wash off).
Confocal images were acquired using the Opera Phenix system (Revvity, USA) with a 10x, 20x or 40x water objective and excitation at 405 nm (Hoechst), 488 nm (BODIPY), and 532 nm (PNPLA3 I148M-tagRFP).
Images were analyzed using Harmony (Revvity) and MetaXpress software (Molecular Devices, USA) to quantify lipid droplet morphology and PNPLA3 I148M-tagRFP intensity.
Assay plates were evaluated based on Z’ scores (>0.6) and signal-to-background ratio (>12) using Genedata Screener® for HTS and Condoseo modules (Genedata, Switzerland). Normalization, quality control, and fitting curves for EC50 determination of tested compounds were performed with Genedata Screener® for high-content screening and Genedata Condoseo modules (Genedata AG, Basel, Switzerland). More than 820K cpds were screened on 791 1536W plates in 11 runs covering three weeks of primary HTS. Automated image analysis routines were set up to quantify the number, morphology and intensity of nuclei, lipid droplets and the intensity of PNPLA3 I148M-tagRFP on lipid droplets. Toxic or autofluorescent compounds were excluded from the hitlist based on nuclear count, area, and intensity measurements as well as lipid droplet staining intensity compared to control cells.

Assay [2] has as its target T2, PNPLA2 (Homo sapiens, UniProt Q96AD5).
T2 sequence (Q96AD5 1-504): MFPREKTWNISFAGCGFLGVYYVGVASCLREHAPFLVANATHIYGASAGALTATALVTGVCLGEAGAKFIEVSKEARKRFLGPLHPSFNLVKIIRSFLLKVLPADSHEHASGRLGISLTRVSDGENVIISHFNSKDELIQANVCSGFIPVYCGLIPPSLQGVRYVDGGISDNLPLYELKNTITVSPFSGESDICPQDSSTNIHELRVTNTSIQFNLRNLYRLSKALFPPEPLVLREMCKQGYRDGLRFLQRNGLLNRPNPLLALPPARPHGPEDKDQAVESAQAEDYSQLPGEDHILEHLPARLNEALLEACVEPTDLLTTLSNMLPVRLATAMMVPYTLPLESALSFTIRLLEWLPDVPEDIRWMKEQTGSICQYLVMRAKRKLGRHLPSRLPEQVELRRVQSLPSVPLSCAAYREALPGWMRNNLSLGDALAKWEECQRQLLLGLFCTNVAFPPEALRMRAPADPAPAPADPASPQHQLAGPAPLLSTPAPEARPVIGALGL
Kind of assay: nanoDSF thermal shift, PNPLA2 protein. The assay is classed as binding. The settings on record: ligand 25 μM. An excerpt:
To investigate the mode of action of NUV-244, we evaluated its direct binding to the PNPLA3 I148M protein using nano differential scanning fluorimetry (nanoDSF). In this assay, compounds that bind to a target protein can lead to thermal stabilization, preventing protein denaturation, which is reflected in a shift of the protein melting curve.
Full-length wild-type PNPLA3 (Q9NST1), mutant PNPLA3 (I148M), and PNPLA2 (Q96AD5) were cloned into the pVL1393 vector with an N-terminal Flag-Tag. Proteins were expressed in SF9 cells infected at a multiplicity of infection (MOI) of 1 for 72 hours. Protein purification was performed using a two-step process. The first step involved affinity purification using M2 anti-Flag agarose beads. This was followed by gel filtration chromatography using a Superdex 200 column. Thermal melting experiments were carried out using a Prometheus NT.48 instrument (NanoTemper Technologies). Proteins were prepared in 20 mM Tris-HCl pH 7.4, 100 mM NaCl, 5 % Glycerol, 2 mM DTT and 0.2 mg/mL was used as a final concentration in 50 μL volume. For binding experiments, ligands were added to the mixture at a final concentration of 25 μM, DMSO was used as control. […] The intrinsic protein fluorescence at 330 and 350 nm was recorded. Data were analysed using Prometheus NT.48 software. Thermal shifts (ΔTm) were calculated, and Z-scores greater than 6 indicated robust stabilization. […]
For orientation: In DSF a fluorescence change marks the thermal transition of the protein.

In general, EC50 refers to the concentration at which the effect is half-maximal. Take `Cc1cccc(Cc2nc(C)c(C(=O)Nc3cc(O)ccc3Cl)s2)c1` [NUV-244]: the EC50 in assay [1] (HTS batch (hit), 24h, two independent determinations, read-out: EC50 Huh7, PNPLA3 I148M-tagRFP reduction) worked out at 2.28e-07 ± 3.1e-08 M; in assay [1] (representative dose-response curve, Figure 2D, read-out: EC50 [M] Huh7, PNPLA3-I148M-tagRFP), 2.05e-07 M; in assay [1] (representative dose-response curve, Figure 3B, read-out: EC50 [M] Huh7, PNPLA3 I148M-tagRFP), 3.51e-07 M; in assay [1] (resynthesis, representative curve, Figure 4C, read-out: EC50 [M] Huh7, PNPLA3 I148M-tagRFP intensity on lipid droplets), 3.8e-07 M. Moreover, the “effect on melting curve of PNPLA2 protein” value in assay [2] was “did not affect the melting curve”.
